{"source": "paper PMC12746157", "about": "“Light-Regulated Agonists Spatiotemporally Activating the Vitamin D Receptor Mitigate Psoriasis-like Inflammation in Mice without Inducing Hypercalcemia” (ACS Central Science, 2025)", "key": {"[1]": {"test": "Photoisomerization quantum yield (MATLAB regression)", "assay_type": "physicochemical", "method": "The UV–vis absorbance spectra of all molecules were measured in the dark and after the application of light of different wavelengths ranging from 365 to 770 nm (Figure A and Figures S1–S3). […] Consequently, violet/UV light below 405 nm efficiently promoted photoisomerization, which produced a dramatic decrease in the π-π* band and a significant increase in the n-π* band at around 445 nm (Table ). […] The proportion of molecules at the PSS in trans isomer upon constant illumination with light at 525 nm and cis at 365 nm was in general above 50%, reaching a remarkable >99% for compound 11d (Table and Figures S4 and S5). […] The greater stability of the trans isomer was consistent with previous quantum mechanical and molecular mechanics predictions. Measuring the photoisomerization properties of compound PhotoVDRM allowed us to determine the photoisomerization quantum yields of the compound by solving a differential equation for photoisomerization. We used MATLAB to perform regression and arrive at the following photoisomerization quantum yields: ϕ365 nm (trans) = 0.0427, ϕ365 nm (cis) = 0.0501, ϕ470 nm (trans) = 0.1857, and ϕ470 nm (cis) = 0.2281 (Figure S9). Compound PhotoVDRM was also evaluated in aqueous buffer used for pharmacological experiments (0.5% DMSO) showing a thermal relaxation of 3 h, almost 7 times faster than in pure DMSO (Figure B). […] A deeper photocharacterization of PhotoVDRM allowed us to measure the kinetics of photoconversion upon constant illumination with two wavelengths and three light intensities (Figure D and Figure S10). […] Indeed, with LED devices producing light at intensities as low as 0.05 mW/mm^2 we were able to transform trans to cis in around 15.5 s. This time was reduced to 6 and 2 s when the light intensity was increased to 0.15 and 0.75 mW/mm^2. […] Therefore, we proceeded to test the ability of the chemical library to activate the VDR under different light conditions."}, "[2]": {"biological_target": "T1, VDR-LBD (Homo sapiens, UniProt P11473)", "T1 construct": "VDR-LBD protein stock solution was prepared in 20 mM HEPES buffer", "T1 sequence (P11473 127-423 limits assumed)": "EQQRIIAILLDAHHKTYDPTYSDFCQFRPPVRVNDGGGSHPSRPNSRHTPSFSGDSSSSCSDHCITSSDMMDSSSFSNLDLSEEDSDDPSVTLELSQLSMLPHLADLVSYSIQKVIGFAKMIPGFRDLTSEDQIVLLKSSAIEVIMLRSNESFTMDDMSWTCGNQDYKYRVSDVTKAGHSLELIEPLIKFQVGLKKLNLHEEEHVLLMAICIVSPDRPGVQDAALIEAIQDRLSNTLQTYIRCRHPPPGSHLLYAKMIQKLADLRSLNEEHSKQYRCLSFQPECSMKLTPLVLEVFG", "test": "HDX-MS of VDR-LBD with ligand in the dark and under 365 nm light", "assay_type": "binding", "method": "Although previously used to study the effect of a cyclic azopeptide in its activated cis state, here we studied the target dynamics upon direct application of the light to the sample. To this aim, HDX-MS was applied for the characterization of the binding mode and modulation of receptor dynamics of the racemic compound PhotoVDRM. VDR-LBD was incubated alone (to provide an apo control for each experiment) or with an excess of compound PhotoVDRM and exposed to deuterium labeling for various periods of time, from 10 s to 2 h, in the dark and illuminated with light at 365 nm. […] As an additional control experiment, we also evaluated the HDX-MS of VDR-LBD in the presence and absence of a standard agonist, compound LSN2148936, in the dark and under illumination conditions. […] In order to permit direct comparison, including mathematical manipulation of the data in all these experiments, the observed deuterium incorporation percentages were converted to rate constants (expressed as −log10(k)) using our previously published Bayesian approach.\n(Perkin Elmer, now Revvity, Cat.No. 6006290) in duplicate. Immediately, 54 µL of the protein solution were added and the plate was covered and incubated for 30 min at room temperature in the dark. Meanwhile, the plate with the 10X dilutions was illuminated at 365 nm for 3 min in a 96-well DED array plate (LEDA Teleopto), to allow the photoconversion of the molecules to their cis configuration. The illuminated compounds were mixed with the protein solution and incubated as described above for the plate in the dark. After the incubation time, the counts of both, the dark and illuminated plates, were measured in a Tecan Spark 20M Multimode plate reader with defined settings (excitation: 680 nm, emission: 520-620 nm, excitation time: 100ms, integration time: 300 ms). Biotinylated-His6 peptide (PerkinElmer) was used as a quality control reagent for AlphaScreen® assays and to evaluate compound interaction with the method. […] Dose-response curves and EC50 values were calculated with Graphpad software. […]"}, "[3]": {"test": "Serum total calcium measurement in mice (Arsenazo III)", "assay_type": "in vivo", "conditions": "after treatment i.p. days 2-4 (LSN2148936 0.005 mg/kg, PhotoVDRM 0.5 mg/kg), 420 or 520 nm"}, "[4]": {"biological_target": "VDR (Homo sapiens, UniProt P11473)", "sequence (P11473 whole entry, the tested form may be a part)": "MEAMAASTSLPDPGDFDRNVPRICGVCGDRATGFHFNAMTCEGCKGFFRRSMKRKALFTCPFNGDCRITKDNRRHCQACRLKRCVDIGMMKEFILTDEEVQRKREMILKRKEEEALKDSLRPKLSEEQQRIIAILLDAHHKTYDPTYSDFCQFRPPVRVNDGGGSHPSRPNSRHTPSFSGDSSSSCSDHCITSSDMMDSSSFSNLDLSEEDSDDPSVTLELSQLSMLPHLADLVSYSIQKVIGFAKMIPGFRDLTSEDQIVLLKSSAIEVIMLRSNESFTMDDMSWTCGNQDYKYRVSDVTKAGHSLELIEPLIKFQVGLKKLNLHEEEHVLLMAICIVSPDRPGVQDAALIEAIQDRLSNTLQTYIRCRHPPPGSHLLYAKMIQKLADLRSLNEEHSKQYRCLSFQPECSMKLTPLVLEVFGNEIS", "sequence (P19793 whole entry partner, the tested form may be a part)": "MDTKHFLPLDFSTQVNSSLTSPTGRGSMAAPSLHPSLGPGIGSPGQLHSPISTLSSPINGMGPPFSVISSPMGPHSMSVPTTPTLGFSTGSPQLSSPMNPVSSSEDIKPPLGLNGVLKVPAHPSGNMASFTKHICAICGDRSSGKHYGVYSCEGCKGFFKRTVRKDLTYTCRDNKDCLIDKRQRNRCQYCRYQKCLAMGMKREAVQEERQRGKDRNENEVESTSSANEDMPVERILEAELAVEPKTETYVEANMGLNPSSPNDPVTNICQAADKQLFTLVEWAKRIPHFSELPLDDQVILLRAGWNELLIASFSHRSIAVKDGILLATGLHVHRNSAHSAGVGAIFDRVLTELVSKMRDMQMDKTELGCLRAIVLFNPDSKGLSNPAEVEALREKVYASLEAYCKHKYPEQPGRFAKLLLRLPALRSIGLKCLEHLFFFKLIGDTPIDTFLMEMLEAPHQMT", "sequence (Q15648 whole entry partner, the tested form may be a part)": "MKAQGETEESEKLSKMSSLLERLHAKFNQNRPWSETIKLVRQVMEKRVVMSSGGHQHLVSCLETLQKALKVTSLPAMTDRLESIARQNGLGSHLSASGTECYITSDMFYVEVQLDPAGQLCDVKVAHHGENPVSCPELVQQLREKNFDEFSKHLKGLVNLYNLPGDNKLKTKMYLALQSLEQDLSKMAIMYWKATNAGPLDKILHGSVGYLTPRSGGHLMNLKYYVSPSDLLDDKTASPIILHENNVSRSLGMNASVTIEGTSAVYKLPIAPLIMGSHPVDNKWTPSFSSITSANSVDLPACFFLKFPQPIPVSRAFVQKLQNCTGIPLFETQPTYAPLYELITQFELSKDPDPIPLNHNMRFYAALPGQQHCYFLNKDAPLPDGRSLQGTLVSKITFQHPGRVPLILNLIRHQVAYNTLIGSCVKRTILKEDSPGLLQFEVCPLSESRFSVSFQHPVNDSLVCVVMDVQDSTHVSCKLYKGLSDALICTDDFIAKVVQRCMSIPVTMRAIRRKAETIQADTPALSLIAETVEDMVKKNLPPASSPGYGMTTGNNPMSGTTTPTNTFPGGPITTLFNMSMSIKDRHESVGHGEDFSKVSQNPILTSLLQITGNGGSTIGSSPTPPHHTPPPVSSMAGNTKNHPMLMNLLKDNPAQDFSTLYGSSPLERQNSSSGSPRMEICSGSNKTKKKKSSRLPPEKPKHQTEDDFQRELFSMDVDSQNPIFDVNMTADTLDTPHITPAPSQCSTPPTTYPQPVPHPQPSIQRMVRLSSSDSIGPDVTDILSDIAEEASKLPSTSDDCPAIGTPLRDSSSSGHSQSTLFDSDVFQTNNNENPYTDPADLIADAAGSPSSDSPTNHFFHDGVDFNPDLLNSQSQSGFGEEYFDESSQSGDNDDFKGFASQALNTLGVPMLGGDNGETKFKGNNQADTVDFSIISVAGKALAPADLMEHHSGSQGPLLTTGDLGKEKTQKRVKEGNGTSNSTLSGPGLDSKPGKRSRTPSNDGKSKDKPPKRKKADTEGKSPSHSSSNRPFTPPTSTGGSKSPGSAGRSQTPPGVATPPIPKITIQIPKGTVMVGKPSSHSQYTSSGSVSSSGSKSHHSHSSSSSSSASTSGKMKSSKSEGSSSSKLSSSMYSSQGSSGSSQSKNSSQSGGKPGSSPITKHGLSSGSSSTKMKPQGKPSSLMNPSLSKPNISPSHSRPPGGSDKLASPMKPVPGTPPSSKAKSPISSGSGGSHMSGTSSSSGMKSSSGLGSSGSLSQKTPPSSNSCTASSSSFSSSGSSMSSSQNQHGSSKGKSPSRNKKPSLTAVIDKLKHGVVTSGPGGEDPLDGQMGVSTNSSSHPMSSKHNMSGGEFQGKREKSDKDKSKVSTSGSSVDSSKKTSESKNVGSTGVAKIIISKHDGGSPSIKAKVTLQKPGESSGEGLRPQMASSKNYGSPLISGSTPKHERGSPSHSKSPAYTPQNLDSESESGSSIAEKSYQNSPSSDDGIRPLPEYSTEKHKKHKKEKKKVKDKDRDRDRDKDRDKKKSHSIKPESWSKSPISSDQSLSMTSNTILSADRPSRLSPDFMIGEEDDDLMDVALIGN", "test": "Luminescent proximity homogeneous assay (AlphaScreen): interaction of purified VDR, RxR and TRAP220 coactivator fragment", "assay_type": "biochemical", "conditions": "UVB narrowband light (315 nm) and visible illumination at 420 nm"}}, "note": "Entries after “also recorded” stand apart in the source; their conditions may differ."}
{"smiles": "Cc1cc(OCC(O)C(C)(C)C)ccc1N=Nc1cccc(-c2ccc(C(=O)O)cc2)c1", "note": "(centres unmarked) [Compound 11b]", "values": [{"measurement": "photoisomerization quantum yield ϕ365 nm (cis)", "setting": "[1]; 365 nm, cis", "value": 0.0501}, {"measurement": "photoisomerization quantum yield ϕ365 nm (trans)", "setting": "[1]; 365 nm, trans", "value": 0.0427}, {"measurement": "photoisomerization quantum yield ϕ470 nm (cis)", "setting": "[1]; 470 nm, cis", "value": 0.2281}, {"measurement": "photoisomerization quantum yield ϕ470 nm (trans)", "setting": "[1]; 470 nm, trans", "value": 0.1857}, {"measurement": "protection to H/D exchange", "setting": "[2]; in the dark, vs under light", "value": "much lower"}, {"measurement": "protection to H/D exchange", "setting": "[2]; under 365 nm light, vs reference agonist LSN2148936", "value": "comparable"}, {"measurement": "effect on calcium homeostasis (serum total calcium)", "setting": "[3]", "value": "null impact; also recorded: without concomitant hypercalcemia"}, {"measurement": "modulation of activity by light", "setting": "[4]", "value": "modulated the activity"}]}
